Measured values as given in ChEMBL document CHEMBL4477215, “Specific Correction of Alternative Survival Motor Neuron 2 Splicing by Small Molecules: Discovery of a Potential Novel Medicine To Treat Spinal Muscular Atrophy” (J Med Chem, 2016).

Legend:
[1] = Oral bioavailability in Cynomolgus monkey at 1 mg/kg; assay type: ADME, organism-based, Macaca fascicularis; settings: in vivo
Mus musculus [2] = test: Inhibition of mRNA splicing of SMN2 exon 7 in C/C-allele mouse harboring FVB.129(B6) Smn1tm5(Smn1/SMN2)Mrph/J assessed as increase in SMN protein level in quadriceps at 10 mg/kg, po qd for 10 days measured 1 hr after 10th dose by HTRF assay relative to control; assay type: functional; set-up: scale not given: the % may be the effect or the level left
Mus musculus [3] = test: Inhibition of mRNA splicing of SMN2 exon 7 in C/C-allele mouse harboring FVB.129(B6) Smn1tm5(Smn1/SMN2)Mrph/J assessed as increase in SMN protein level in quadriceps at 1 mg/kg, po qd for 10 days measured 1 hr after 10th dose by HTRF assay relative to control; assay type: functional; set-up: scale not given: the % may be the effect or the level left
Homo sapiens [4] = organism: Homo sapiens; test: Inhibition of mRNA splicing of SMN2 exon 7 in GM03813 fibroblasts derived from human SMA type 1 patient after 24 hrs by RT-qPCR analysis
Mus musculus [5] = test: (§1) Inhibition of mRNA splicing of SMN2 exon 7 in neonatal delta7 mouse harboring FVB.Cg-Tg(SMN2 delta7)4299Ahmb Tg(SMN2)-89Ahmb Smn1tm1Msd/J assessed as increase in SMN protein level in brain at 1 mg/kg, ip qd administered from postnatal day 3 to postnatal day 9 measured 1 hr after last dose by HTRF assay relative to control; assay type: functional; set-up: scale not given: the % may be the effect or the level left
[6] = Fraction unbound in human plasma; assay type: ADME, cell-free
[7] = Fraction unbound in mouse plasma; assay type: ADME, cell-free
P-gp (ABCB1) = P-gp (ABCB1) (Homo sapiens, UniProt P08183); test: Substrate activity at human P-gp assessed as efflux ratio by cell based assay; settings: not told
P-gp (ABCB1), sequence (P08183 whole entry): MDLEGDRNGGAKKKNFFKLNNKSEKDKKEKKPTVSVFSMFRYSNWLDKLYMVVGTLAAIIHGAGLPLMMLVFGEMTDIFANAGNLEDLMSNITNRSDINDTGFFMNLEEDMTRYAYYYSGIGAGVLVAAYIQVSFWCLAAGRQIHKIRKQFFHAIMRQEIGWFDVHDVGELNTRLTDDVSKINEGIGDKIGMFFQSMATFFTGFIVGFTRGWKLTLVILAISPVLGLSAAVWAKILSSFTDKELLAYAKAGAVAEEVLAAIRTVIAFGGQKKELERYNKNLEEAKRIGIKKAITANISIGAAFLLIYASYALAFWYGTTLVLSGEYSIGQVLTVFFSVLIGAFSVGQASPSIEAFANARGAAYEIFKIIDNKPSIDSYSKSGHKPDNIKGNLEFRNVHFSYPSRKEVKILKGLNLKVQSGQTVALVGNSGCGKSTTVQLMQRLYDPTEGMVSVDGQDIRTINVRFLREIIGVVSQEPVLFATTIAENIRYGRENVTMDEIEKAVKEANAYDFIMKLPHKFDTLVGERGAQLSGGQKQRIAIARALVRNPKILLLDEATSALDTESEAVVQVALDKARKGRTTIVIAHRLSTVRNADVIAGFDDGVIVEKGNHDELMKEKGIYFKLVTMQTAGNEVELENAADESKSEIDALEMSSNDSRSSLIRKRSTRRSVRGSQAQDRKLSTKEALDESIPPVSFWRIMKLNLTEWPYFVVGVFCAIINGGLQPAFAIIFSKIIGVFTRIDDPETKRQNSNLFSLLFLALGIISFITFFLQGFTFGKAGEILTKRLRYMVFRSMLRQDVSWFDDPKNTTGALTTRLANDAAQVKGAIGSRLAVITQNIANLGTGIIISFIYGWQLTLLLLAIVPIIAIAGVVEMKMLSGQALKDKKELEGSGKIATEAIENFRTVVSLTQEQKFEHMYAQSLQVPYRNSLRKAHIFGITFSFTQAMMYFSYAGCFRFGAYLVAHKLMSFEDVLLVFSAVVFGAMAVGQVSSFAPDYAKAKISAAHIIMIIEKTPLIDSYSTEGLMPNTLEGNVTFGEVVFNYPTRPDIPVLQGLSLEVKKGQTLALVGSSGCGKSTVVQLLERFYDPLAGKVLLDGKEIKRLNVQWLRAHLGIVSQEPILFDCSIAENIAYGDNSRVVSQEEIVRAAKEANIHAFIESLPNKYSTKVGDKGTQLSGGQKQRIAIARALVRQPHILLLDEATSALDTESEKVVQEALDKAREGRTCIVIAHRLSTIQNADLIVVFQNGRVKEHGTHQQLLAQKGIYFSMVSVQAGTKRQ

[8] = Fraction unbound in Cynomolgus monkey plasma; assay type: ADME, cell-free, Macaca fascicularis
[9] = Volume of distribution at steady state in rat at 2 mg/kg, iv; assay type: ADME, organism-based; settings: in vivo, read-out: Vdss
[10] = Mutagenicity in Salmonella typhimurium TA100 assessed as increase in revertant colonies after 2 days in presence of rat liver S9 fraction by Ames test relative to control; assay type: toxicity; settings: salmonella enterica subsp. enterica serovar typhimurium, s9, 48 h
Mus musculus [11] = test: Inhibition of mRNA splicing of SMN2 exon 7 in C/C-allele mouse harboring FVB.129(B6) Smn1tm5(Smn1/SMN2)Mrph/J assessed as increase in SMN protein level in quadriceps at 3 mg/kg, po qd for 10 days measured 1 hr after 10th dose by HTRF assay relative to control; assay type: functional; set-up: scale not given: the % may be the effect or the level left
[12] = Fraction unbound in rat plasma; assay type: ADME, cell-free
Mus musculus [13] = test: as §1, with “quadriceps” for “brain”; assay type: functional; set-up: scale not given: the % may be the effect or the level left
Mus musculus [14] = test: (§2) Inhibition of mRNA splicing of SMN2 exon 7 in neonatal delta7 mouse harboring FVB.Cg-Tg(SMN2 delta7)4299Ahmb Tg(SMN2)-89Ahmb Smn1tm1Msd/J assessed as increase in SMN protein level in brain administered ip qd dosed from postnatal day 3 to postnatal day 9 measured 1 hr after last dose by HTRF assay; assay type: functional, organism-based
Mus musculus [15] = test: Inhibition of mRNA splicing of SMN2 exon 7 in C/C-allele mouse harboring FVB.129(B6) Smn1tm5(Smn1/SMN2)Mrph/J assessed as increase in SMN protein level in brain at 3 mg/kg, po qd for 10 days measured 1 hr after 10th dose by HTRF assay relative to control; assay type: functional; set-up: scale not given: the % may be the effect or the level left
Mus musculus [16] = test: Inhibition of mRNA splicing of SMN2 exon 7 in C/C-allele mouse harboring FVB.129(B6) Smn1tm5(Smn1/SMN2)Mrph/J assessed as increase in SMN protein level in quadriceps administered orally qd for 10 days measured 1 hr after 10th dose by HTRF assay; assay type: functional, organism-based
[17] = Mutagenicity in Salmonella typhimurium TA102 assessed as increase in revertant colonies after 2 days in presence of rat liver S9 fraction by Ames test relative to control; assay type: toxicity; settings: salmonella enterica subsp. enterica serovar typhimurium, s9, 48 h
[18] = Oral bioavailability in rat at 10 mg/kg; assay type: ADME, organism-based; settings: in vivo
Mus musculus [19] = test: as §1, with “in quadriceps” for “in brain”, “at 0.3” for “at 1”; assay type: functional; set-up: scale not given: the % may be the effect or the level left
[20] = Volume of distribution at steady state in Cynomolgus monkey at 0.3 mg/kg, iv; assay type: ADME, organism-based, Macaca fascicularis; settings: in vivo, read-out: Vdss
[21] = Unbound AUC in plasma of C/C-allele mouse harboring FVB.129(B6)-Smn1tm5(Smn1/SMN2)Mrph/J at 10 mg/kg, po; assay type: ADME, organism-based; settings: in vivo
[22] = Octanol-aqueous phosphate buffer distribution coefficient, log D of the compound at pH 7.4 at 100 mM after 24 hrs by LC-MS based shake flask method; assay type: physicochemical
Homo sapiens [23] = organism: Homo sapiens; test: Inhibition of mRNA splicing of SMN2 exon 7 in fibroblasts derived from human SMA type 1/2/3 patient assessed as increase in SMN protein level after 48 hrs by HTRF assay
[24] = Clearance in rat at 2 mg/kg, iv; assay type: ADME, organism-based; settings: in vivo
[25] = Half life in Cynomolgus monkey at 1 mg/kg, po; assay type: ADME, organism-based, Macaca fascicularis; settings: in vivo
[26] = Clearance in Cynomolgus monkey at 0.3 mg/kg, iv; assay type: ADME, organism-based, Macaca fascicularis; settings: in vivo
[27] = Mutagenicity in Salmonella typhimurium TA98 assessed as increase in revertant colonies after 2 days in presence of rat liver S9 fraction by Ames test relative to control; assay type: toxicity; settings: salmonella enterica subsp. enterica serovar typhimurium, s9, 48 h
[28] = Half life in rat at 10 mg/kg, po; assay type: ADME, organism-based; settings: in vivo
[29] = AUC in plasma of C/C-allele mouse harboring FVB.129(B6)-Smn1tm5(Smn1/SMN2)Mrph/J at 10 mg/kg, po; assay type: ADME, organism-based
Mus musculus [30] = test: Inhibition of mRNA splicing of SMN2 exon 7 in C/C-allele mouse harboring FVB.129(B6) Smn1tm5(Smn1/SMN2)Mrph/J assessed as increase in SMN protein level in brain administered orally po qd for 10 days measured 1 hr after 10th dose by HTRF assay; assay type: functional, organism-based
Mus musculus [31] = test: as §2, with “quadriceps” for “brain”; assay type: functional, organism-based
[32] = Mutagenicity in Salmonella typhimurium TA1535 assessed as increase in revertant colonies after 2 days in presence of rat liver S9 fraction by Ames test relative to control; assay type: toxicity; settings: salmonella enterica subsp. enterica serovar typhimurium, s9, 48 h
[33] = Mutagenicity in Salmonella typhimurium TA97 assessed as increase in revertant colonies after 2 days in presence of rat liver S9 fraction by Ames test relative to control; assay type: toxicity; settings: salmonella enterica subsp. enterica serovar typhimurium, s9, 48 h
Mus musculus [34] = test: as §1, with “at 0.3” for “at 1”; assay type: functional; set-up: scale not given: the % may be the effect or the level left
Mus musculus [35] = test: Inhibition of mRNA splicing of SMN2 exon 7 in C/C-allele mouse harboring FVB.129(B6) Smn1tm5(Smn1/SMN2)Mrph/J assessed as increase in SMN protein level in brain at 10 mg/kg, po qd for 10 days measured 1 hr after 10th dose by HTRF assay relative to control; assay type: functional; set-up: scale not given: the % may be the effect or the level left

Work on `Cc1cn2cc(-c3cc(=O)n4cc(N5CCN(C)CC5)ccc4n3)cc(C)c2n1` yielded a bioavailability [1] of 100%, an Activity (Mus musculus [2]) of 133% and an Activity (Mus musculus [3]) of 28%. For the same compound, the EC1.5 (Homo sapiens [4]) was 7 nM, the Activity (Mus musculus [5]) was 130% and the fraction unbound [6] was 0.11. It also gave a fraction unbound [7] of 0.16, an efflux ratio (P-gp (ABCB1)) of 2.4 and a fraction unbound [8] of 0.08. For the same compound, the Vd [9] was 14 L/kg, the Activity [10] was “Non-Toxic” and the Activity (Mus musculus [11]) was 70%. For the same compound, the fraction unbound [12] was 0.1, the Activity (Mus musculus [13]) was 115% and the inhibition (Mus musculus [14]) was “Dose-dependent effect”. The Activity (Mus musculus [15]) was 0%, the inhibition (Mus musculus [16]) was “Dose-dependent effect” and the Activity [17] was “Non-Toxic”. It also gave a bioavailability [18] of 55 to 100%, an Activity (Mus musculus [19]) of 31% and a Vd [20] of 4.3 L/kg. For the same compound, the fAUC [21] was 400 ng·h/mL, the logD at 24 h [22] was 2.49 and the EC1.5 (Homo sapiens [23]) was 14 to 55 nM. It also gave a clearance [24] of 38 mL/min/kg, a half-life [25] of 8 h and a clearance [26] of 7.5 mL/min/kg. For the same compound, the Activity [27] was “Non-Toxic”, the half-life [28] was 6 h and the AUC [29] was 2500 ng·h/mL. The inhibition (Mus musculus [30]) was “Dose-dependent effect”, the inhibition (Mus musculus [31]) was “Dose-dependent effect” and the Activity [32] was “Non-Toxic”. The Activity [33] was “Non-Toxic”, the Activity (Mus musculus [34]) was 39% and the Activity (Mus musculus [35]) was 39%.
